Reference: patent publication US7919622B2, “Intermediates for fluorinated tetrabenazine carbinol compounds imaging agents and probes” (priority 2007, dated 2011)

Target: T1, VMAT-2 (Homo sapiens, UniProt Q05940)
T1 construct: Novascreen Biosciences Corporation (contract assay provider) protocol Cat. No. 100-0751
Experiment: VMAT-2 binding affinity measurement (Novascreen protocol Cat. No. 100-0751)
Conditions: for Ki: VMAT-2 binding affinity, reserpine value is the average of two Ki values; for binding affinity for VMAT-2 (in words): relative to reserpine and DTBZ controls
Excerpt: Novascreen, Inc. is a commercial provider of biological assays for the pharmaceutical industry. […] In addition, the binding constants Ki expressed in nano-molar (nM) concentration units indicate a very high affinity of the fluoroalkyl tetrabenazine carbinol compounds of the present invention for the VMAT-2 biomarker.

T1 sequence (Q05940 whole entry, species assumed): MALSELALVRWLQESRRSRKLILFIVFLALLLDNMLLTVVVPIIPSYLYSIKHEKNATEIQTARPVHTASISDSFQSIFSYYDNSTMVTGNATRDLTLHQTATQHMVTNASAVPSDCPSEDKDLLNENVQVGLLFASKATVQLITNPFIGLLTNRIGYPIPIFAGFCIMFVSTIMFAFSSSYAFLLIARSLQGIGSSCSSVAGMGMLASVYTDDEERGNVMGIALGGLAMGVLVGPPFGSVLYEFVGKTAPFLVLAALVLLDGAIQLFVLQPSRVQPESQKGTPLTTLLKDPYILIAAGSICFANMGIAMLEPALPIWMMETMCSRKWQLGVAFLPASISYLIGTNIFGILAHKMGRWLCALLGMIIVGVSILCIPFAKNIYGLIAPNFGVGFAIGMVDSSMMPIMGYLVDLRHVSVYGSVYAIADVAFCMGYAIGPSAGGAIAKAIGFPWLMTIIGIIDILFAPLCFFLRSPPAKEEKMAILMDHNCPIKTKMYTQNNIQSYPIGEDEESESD

Ki [µM] | binding affinity for VMAT-2 (in words) | Compound
0.019 | very high binding affinity | COc1cc2c(cc1OC)[C@H]1C[C@](O)(C#CCF)[C@H](CC(C)C)CN1CC2 [Compound 17]
0.019 | very high binding affinity | COc1cc2c(cc1OC)[C@H]1C[C@@](C#CCF)(OC(C)=O)[C@H](CC(C)C)CN1CC2 [Compound 16, (2R,3R,11bR)-2-(3-fluoroprop-1-ynyl)-3-isobutyl-9,10-dimethoxy-2,3,4,6,7,11b-hexahydro-1-H-pyrido[2,1-α]isoquinolin-2-yl acetate]
